According to US9314539B2, “Nanosphere-histone acetyltransferase (HAT) activator composition, process and methods thereof” (JAWAHARLAL NEHRU CENTRE FOR ADVANCED SCIENTIFIC RESEARCH, priority 2012, dated 2016):
Read-outs that look alike come from different tables or passages of the source.

Columns and labels:
p300 [1] = target: T1, p300 (Homo sapiens, UniProt Q09472); experiment: HAT filter binding assay with p300; type: biochemical; details: for HAT activation (radioactivity counts): 200 μM, HeLa core histones as substrate
T1 sequence (Q09472 whole entry, species assumed): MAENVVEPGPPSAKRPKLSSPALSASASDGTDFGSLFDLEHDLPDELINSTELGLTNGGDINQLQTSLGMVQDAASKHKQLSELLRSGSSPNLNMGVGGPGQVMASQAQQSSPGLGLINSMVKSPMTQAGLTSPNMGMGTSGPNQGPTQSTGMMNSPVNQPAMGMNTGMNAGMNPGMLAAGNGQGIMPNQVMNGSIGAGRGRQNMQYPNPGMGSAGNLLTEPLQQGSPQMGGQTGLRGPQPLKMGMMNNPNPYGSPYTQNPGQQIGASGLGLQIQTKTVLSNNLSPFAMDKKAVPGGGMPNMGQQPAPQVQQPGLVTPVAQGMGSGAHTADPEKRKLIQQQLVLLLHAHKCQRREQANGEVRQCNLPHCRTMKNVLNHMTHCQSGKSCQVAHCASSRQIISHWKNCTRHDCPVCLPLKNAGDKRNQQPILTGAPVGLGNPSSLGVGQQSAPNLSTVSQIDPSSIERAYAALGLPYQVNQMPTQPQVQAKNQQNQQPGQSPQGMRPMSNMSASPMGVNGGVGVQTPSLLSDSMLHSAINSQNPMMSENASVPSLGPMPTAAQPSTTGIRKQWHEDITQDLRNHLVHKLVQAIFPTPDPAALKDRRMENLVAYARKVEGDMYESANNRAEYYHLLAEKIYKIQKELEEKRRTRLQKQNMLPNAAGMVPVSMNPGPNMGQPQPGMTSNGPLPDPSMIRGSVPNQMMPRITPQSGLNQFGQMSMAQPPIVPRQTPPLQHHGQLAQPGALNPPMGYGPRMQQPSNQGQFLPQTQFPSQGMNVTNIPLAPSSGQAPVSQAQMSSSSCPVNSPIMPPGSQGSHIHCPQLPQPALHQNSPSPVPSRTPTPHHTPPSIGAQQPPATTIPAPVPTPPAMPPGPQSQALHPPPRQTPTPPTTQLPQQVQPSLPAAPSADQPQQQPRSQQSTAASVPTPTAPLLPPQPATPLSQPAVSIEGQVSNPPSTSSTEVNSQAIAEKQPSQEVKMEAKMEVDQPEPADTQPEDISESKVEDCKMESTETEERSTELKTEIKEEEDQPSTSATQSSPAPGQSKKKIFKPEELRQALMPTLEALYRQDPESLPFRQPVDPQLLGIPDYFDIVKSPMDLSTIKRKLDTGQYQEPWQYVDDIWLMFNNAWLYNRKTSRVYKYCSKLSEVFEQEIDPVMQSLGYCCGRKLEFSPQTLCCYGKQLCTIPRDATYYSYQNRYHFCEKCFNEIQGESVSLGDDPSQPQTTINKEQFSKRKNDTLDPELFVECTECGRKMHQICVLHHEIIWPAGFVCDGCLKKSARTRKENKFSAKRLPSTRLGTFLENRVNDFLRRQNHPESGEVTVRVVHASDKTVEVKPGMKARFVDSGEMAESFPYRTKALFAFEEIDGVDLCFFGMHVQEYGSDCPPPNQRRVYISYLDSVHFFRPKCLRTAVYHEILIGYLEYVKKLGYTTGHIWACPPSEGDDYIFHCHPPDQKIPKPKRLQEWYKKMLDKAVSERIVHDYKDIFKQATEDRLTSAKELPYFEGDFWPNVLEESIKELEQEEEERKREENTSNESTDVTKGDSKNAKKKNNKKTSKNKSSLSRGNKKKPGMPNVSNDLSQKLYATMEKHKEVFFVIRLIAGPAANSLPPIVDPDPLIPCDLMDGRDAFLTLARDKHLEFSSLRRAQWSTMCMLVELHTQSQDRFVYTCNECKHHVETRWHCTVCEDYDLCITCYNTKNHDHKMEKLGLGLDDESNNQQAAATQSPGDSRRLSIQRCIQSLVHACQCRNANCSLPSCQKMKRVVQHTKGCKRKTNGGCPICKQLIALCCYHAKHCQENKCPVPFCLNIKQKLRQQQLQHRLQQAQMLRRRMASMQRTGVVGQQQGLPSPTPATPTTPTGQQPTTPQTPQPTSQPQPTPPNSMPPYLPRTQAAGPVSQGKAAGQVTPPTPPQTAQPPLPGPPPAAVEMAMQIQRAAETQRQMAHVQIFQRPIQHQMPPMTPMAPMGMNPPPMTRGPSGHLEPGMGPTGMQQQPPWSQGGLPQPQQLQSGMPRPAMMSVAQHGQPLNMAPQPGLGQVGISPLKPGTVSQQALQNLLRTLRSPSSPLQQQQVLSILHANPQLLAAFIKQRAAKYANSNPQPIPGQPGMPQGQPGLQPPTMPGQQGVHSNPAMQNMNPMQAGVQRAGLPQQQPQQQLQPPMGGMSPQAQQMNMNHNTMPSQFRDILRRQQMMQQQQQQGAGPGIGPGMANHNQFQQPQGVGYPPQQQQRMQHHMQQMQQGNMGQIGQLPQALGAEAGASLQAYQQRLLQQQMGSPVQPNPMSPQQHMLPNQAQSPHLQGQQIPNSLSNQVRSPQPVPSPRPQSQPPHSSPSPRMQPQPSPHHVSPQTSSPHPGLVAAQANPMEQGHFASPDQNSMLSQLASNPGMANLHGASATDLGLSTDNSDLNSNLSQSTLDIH
Text: To understand the mechanistic aspects HAT activation various small molecules are derivatized from CTPB. The initial tail less derivative of CTPB is nomenclatured as N-(4Chloro-3-trifluoromethy 1-pheny 1)-2-ethoxybenzamide [CTB]. CTB is further derivatized to TTK series of compounds (COMPOUNDS 1-9) (FIG. 29 A). These compounds are subjected to histone acetyltransferase assays (filter binding assay) to check for their ability to activate p300/CBP HAT. Core histones purified from HeLa nuclear pellet is used as the substrate and p300 purified from baculovirus infected Sf21 cells is used to determine the HAT modulation activity of these compounds. All compounds are used at a concentration of 200 μM in the HAT assays.
(§1) Highly purified HeLa core histones are incubated in HAT assay buffer at about 30° C. for a time-period of about 10 minutes with or without baculo virus expressed recombinant p300 or CBP in the presence or absence of small molecules (i.e. HAT activators). The incubation is followed by the addition of about 1 μl of 3.6 Ci/mmol ^3H-acetyl CoA (NEN-PerkinElmer) and further incubation for about 10 minutes in a final volume of 30 μl at 30° C. The mixture is blotted onto P-81 (Whatman) filter paper and radioactive counts are recorded on a Wallac 1409 liquid scintillator counter. For gel fluorographic assays, histones are isolated by trichloroacetic acid (TCA) precipitation using 25% TCA. The pellet obtained is washed twice with acetone and dissolved in 2×SDS loading dye, heated for about 5 mins and is followed by separation using 15% SDS-PAGE. Comassie staining is performed to ascertain the presence of equal loading in each reaction and is later dehydrated in DMSO for about 1 hour. Dehydrated gel is later incubated in scintillation fluid (PPO solution in DMSO) for about 45 minutes and rehydrated again in distilled water for about 4 hours. The gel is then dried using a gel drier and later exposed in an X-ray cassette using a film for about 5 days in −80° cooler. The film is then developed to obtain the intensity profiles for each of the reactions.

SHSY cells = experiment: Cell permeability in neural cell lines; type: cell-based
Description: The cell permeability tests of COMPOUND 1 alone is also carried out in various neural cell lines such as SHSY cells and the results are found to be similar to HeLa cells.

p300 [2] = target: T1, p300; experiment: Gel fluorography HAT assay with p300; type: biochemical
Description: FIG. 2 depicts (A) filter binding assay to show activation of p300 by TTK21. […] TTK21 dissolved in DMSO is added to the reaction mixture at desired concentrations. Lane 1—Histone only, Lane 2—p300 enzyme added, Lane 3—DMSO added, Lane 4—50 μM TTK21, Lane 5—100 μM TTK21, Lane 6—200 μM TTK21 and Lane 7—275 μM TTK21.
as §1, with “Dehydrated gel is later incubated in scintillation fluid (PPO solution in DMSO) for about 45 minutes and rehydrated again in distilled water for about 4 hours. The gel is then dried using a gel drier and later exposed in an X-ray cassette using a film for about 5 days in −80° cooler. The film is then developed to obtain the intensity profiles for each of the reactions.” left out

[3] = test system: neurons expressing double cortin; experiment: Neurogenesis in dentate gyrus of hippocampus, doublecortin staining; type: in vivo, mice; details: intraperitoneal; 3 days
Description: FIG. 18 depicts CSP-TTK21 induced neurogenesis in the inner wall of dentate gyms of mice hippocampus. […] of either CSP alone or TTK21 alone or CSP-TTK21 is injected intraperitonially into mice and after 3 days the mice are anesthetized and fixed with 4% paraformaldehyde. Brains are dissected out and post-fixed, cryoprotected and frozen. 20 μm thick sections are obtained and the results are analyzed by immunohistochemistry. Further, immunofluorescence assays are performed using antibody against double cortin. Scale bar represents 50 μm.
A-D, Immunohistochemistry analysis of the dentate gyms of mice, 3 days after intraperitonial injection of either CSP alone or CSP-TTK21 (20 mg/kg of body weight) using an antibody against doublecortin (DCX) followed by DAB staining. A typical photograph is shown (A). Scale bars: 100 μm. The timeline for injection and euthanasia is shown. h, hour; d, day. […] (C) The average of the longest dendrites associated to all DCX positive-new neuron within one hippocampus is calculated and is represented as histogram for each condition (CSP: 141.1 μm vs. CSP-TTK21: 176.9 μm, *p=0.0177, 4-6 sections/animal). (D), (A) typical cropped image from A is shown, on which the number of dendrites crossing virtual lines drawned at 60, 90 and 120 μm from the SGZ was counted (n=5 images/animal). […]

CBP = experiment: HAT filter binding and gel fluorography assays with full length FLAG-CBP; type: biochemical
Description: TTK21 dissolved in DMSO is added to the reaction mixture at desired concentrations. Lane 1—Histone only, Lane 2—CBP enzyme added, Lane 3—DMSO added, Lane 4—50 μM TTK21, Lane 5—100 μM TTK21, Lane 6—200 μM TTK21 and Lane 7—275 μM TTK21.
COMPOUND 1 is synthesized using salicylic acid as a substrate as depicted in FIG. 1. […] The concentrations of COMPOUND 1 selected for this particular assay are 50 μM, 100 μM, 200 μM and 275 μM. […] These screening experiments are also repeated with full length FLAG-CBP (FIG. 3).
Highly purified HeLa core histones are incubated in HAT assay buffer at about 30° C. for a time-period of about 10 minutes with or without baculo virus expressed recombinant p300 or CBP in the presence or absence of small molecules (i.e. HAT activators). The incubation is followed by the addition of about 1 μl of 3.6 Ci/mmol ^3H-acetyl CoA (NEN-PerkinElmer) and further incubation for about 10 minutes in a final volume of 30 μl at 30° C. The mixture is blotted onto P-81 (Whatman) filter paper and radioactive counts are recorded on a Wallac 1409 liquid scintillator counter. For gel fluorographic assays, histones are isolated by trichloroacetic acid (TCA) precipitation using 25% TCA. The pellet obtained is washed twice with acetone and dissolved in 2×SDS loading dye, heated for about 5 mins and is followed by separation using 15% SDS-PAGE. […]

HeLa cells = experiment: Cell permeability: western blot of acetylated H3 in treated HeLa cells; type: cell-based
Description: (A) western blot analysis of TTK21 untreated and treated HeLa cells for 24 hours. […] Primary probing of the blot is done with AcH3 and re-probing is done by H3 antibody.

Compound: CCCOc1ccccc1C(=O)Nc1ccc(Cl)c(C(F)(F)F)c1 [COMPOUND 1, N-(4-Chloro-3-trifluoromethyl-phenyl)-2-n-propoxy-benzamide]
- HAT activation (radioactivity counts) (p300 [1]): one of the most efficient HAT activator
- HAT activation (radioactivity counts) (p300 [1]; listed as TTK21): significant increase in radioactivity counts compared to other compounds
- concentration of maximum activation of p300 (p300 [1]; filter binding): 250 to 275 µM
- activation of p300, dose dependence (p300 [1]; filter binding, 50-275 μM): Dose dependent activation of p300
- concentration from which activation of p300 starts (p300 [1]; filter binding, tested 50, 100, 200, 275 μM): 5004
- cell permeability (SHSY cells): inability of the COMPOUND 1 molecule alone to enter into mammalian cells
- concentration of maximum activation of p300 (p300 [2]): 275 µM
- activation of p300, dose dependence (p300 [2]; 50-275 μM): dose dependent manner
- double cortin expression in dentate gyrus [3]: doesn't show double cortin expression
- activation of CBP, dose dependence (CBP; 50-275 μM): dose dependent activation of CBP
- concentration of maximum activation of CBP (CBP; filter binding and gel fluorography): 275 µM
- cell permeability (HeLa cells): inability of the COMPOUND 1 molecule itself to enter into mammalian cells
- histone H3 acetylation (HeLa cells; 50-275 μM, 24 hrs): no alteration of histone H3 acetylation
- cell permeability (HeLa cells; listed as TTK21): impermeable to cells
